Laboratory results published in patent publication US6083985A, “Medicinal composition” (Banyu Pharmaceutical Co., Ltd., priority 1995, dated 2000).
Where two headings read alike, the source gives them in different places.

What was measured:
[1] = system: farnesylation of Ras protein in NIH3T3 cells; test: Inhibitory effect on farnesylation of Ras protein in NIH3T3 cells into which an activated ras gene was introduced (SDS-PAGE, anti-Ras antibody, densitometry); format: cell-based; conditions: for inhibitory activity on farnesylation of Ras proteins in the presence of L-654,969: in the presence of L-654,969 (0.15 μM or 5 μM)
Protocol: Inhibitory effect on farnesylation of Ras protein in NIH3T3 cells into which an activated ras gene was introduced, was measured by using the compounds prepared in Preparation Examples 3 and 5 as PFT inhibitors and L-654,969 (an active metabolite of simvastatin) as a hydroxymethylglutaryl CoA reductase inhibitor.
The cells were cultured for 24 hours, peeled off the plates and dissolved in accordance with the method disclosed in J. Biol. Chem., vol. 268, 18415 (1993). The cell solutions were centrifuged at 12000 g for 5 minutes, and the supernatants were used as cell extracts. The cell extracts were subjected to SDS polyacrylamide gel electrophoresis to separate the farnesylated Ras protein and the unfarnesylated Ras protein. […] After the anti-primary antibody, a peroxidaze-conjugated antibody (a secondary antibody) was allowed to react, the Ras protein was detected by mean of a chemoluminescence amplification kit. The proportion of the unfarnesylated Ras protein was determined by using a densitometer and defined as the inhibitory activity.

BMJ1 cells = test: Inhibitory activity on proliferation of transformed BMJ1 cells (SRB method); format: cell-based, mouse; conditions: for IC50: Mus musculus, transformed BMJ1 cells; for 50% cell proliferation inhibitory activity in the presence of L-654,969: presence of 0.8 μM of L-654,969
Protocol: The BMJ1 cells which were obtained by introducing a hormone-inducible activated ras gene into BALB3T3 cells, a mouse-derived established cell line, were transformed by adding dexamethasone to the culture so as to produce an activated Ras protein. To assess the inhibitory effects of the PFT inhibitors on cell proliferation, the 50% proliferation inhibitory concentration for each compound was calculated by adding each compound to a transformed BMJ1 cell culture at various concentrations, and counting the number of cells after incubation. The cell numbers were counted in accordance with the SRB method disclosed in Proc. Am. Assoc. Cancer Res., vol.

[2] = PFT inhibitor 1 μM, L-654,969 5 μM, 24 hours
[3] = PFT inhibitor 3 μM, L-654,969 0.15 μM, 24 hours
[4] = PFT inhibitor 3 μM, L-654,969 5 μM, 24 hours
[5] = In the absence of L-654,969, read-out: 50% Proliferation inhibitory concentration (IC50 μM) In the absence of L-654,969
[6] = In the presence of 0.8 μM of L-654,969, read-out: 50% Proliferation inhibitory concentration (IC50 μM) In the presence of 0.8 μM of L-654,969

Structure (SMILES): C[C@H]([C@H](C/C=C/c1nc2ccccc2o1)c1ccc2c(c1)OCO2)N(Cc1ccc2ccccc2c1)C(=O)CC(CC(=O)O)(C(=O)O)C(=O)O (racemic) [Preparation Example 3, 3-[N-{(1RS,2RS,4E)-5-(2-benzoxazolyl)-1-methyl-2-(3,4-methylenedioxyphenyl)-4-pentenyl}-N-(2-naphthylmethyl)carbamoyl]-1,2,2-propanetricarboxylic acid]
- inhibition at 10 µM ([1]; Mus musculus, NIH3T3, PFT inhibitor 10 μM, L-654,969: None, 24 hours, read-out: Inhibitory rate (%) on farnesylation of the Ras proteins): 32%
- Inhibitory rate (%) on farnesylation of the Ras proteins [1, 2]: 55%
- Inhibitory rate (%) on farnesylation of the Ras proteins [1, 3]: 27%
- Inhibitory rate (%) on farnesylation of the Ras proteins [1, 4]: 88%
- Inhibitory rate (%) on farnesylation of the Ras proteins ([1]; PFT inhibitor 10 μM, L-654,969 0.15 μM, 24 hours): 67%
- Inhibitory rate (%) on farnesylation of the Ras proteins ([1]; PFT inhibitor 10 μM, L-654,969 5 μM, 24 hours): 90%
- inhibitory activity on farnesylation of Ras proteins in the presence of L-654,969 [1]: increased synergically and concentration-dependently
- IC50 (BMJ1 cells; [5]): 130 µM
- IC50 (BMJ1 cells; [6]): 11 µM
- 50% cell proliferation inhibitory activity in the presence of L-654,969 (BMJ1 cells): increased synergecally and concentration-dependently

Structure (SMILES): C[C@H]([C@H](C/C=C/c1nc2ccccc2o1)c1ccc2c(c1)OCO2)N(Cc1ccc2ccccc2c1)C(=O)[C@H](O)[C@@H](CC(=O)[O-])C(=O)[O-].[Na+].[Na+] (racemic) [Preparation Example 4, disodium (3RS,4RS)-4-[N-{(1RS,2RS,4E)-5-(2-benzoxazolyl)-1-methyl-2-(3,4-methylenedioxyphenyl)-4-pentenyl}-N-(2-naphthylmethyl)carbamoyl]-3-carboxylato-4-hydroxybutanoate]
- IC50 (BMJ1 cells; [5]): 105 µM
- IC50 (BMJ1 cells; [6]): 6.5 µM
- 50% cell proliferation inhibitory activity in the presence of L-654,969 (BMJ1 cells): increased synergecally and concentration-dependently

Structure (SMILES): CCC(C)(C)C(=O)O[C@H]1C[C@@H](C)C=C2C=C[C@H](C)[C@H](CC[C@@H](O)C[C@@H](O)CC(=O)O)[C@H]21 [L-654,969, reference compound]
- inhibition of farnesylation of the Ras proteins by L-654,969 by itself ([1]; 0.15 μM or 5 μM, by itself): does not inhibit farnesylation of the Ras proteins
- inhibition of cell proliferation by L-654,969 alone (BMJ1 cells; 0.8 μM, alone): does not inhibit cell proliferation alone

Structure (SMILES): C[C@H]([C@H](C/C=C/c1nc2ccccc2o1)c1ccc2c(c1)OCO2)N(Cc1ccc2ccccc2c1)C(=O)C(O)=C(CC(=O)O)C(=O)OC(C)(C)C [Preparation Example 5, 4-[N-{(1R,2R,4E)-5-(2-benzoxazolyl)-1-methyl-2-(3,4-methylenedioxyphenyl)-4-pentenyl}-N-(2-naphthylmethyl)carbamoyl]-3-tert-butoxycarbonyl-4-hydroxy-3-butenoic acid]
- inhibition at 3 µM ([1]; Mus musculus, NIH3T3, PFT inhibitor 3 μM, L-654,969: None, 24 hours, read-out: Inhibitory rate (%) on farnesylation of the Ras proteins): 32%
- Inhibitory rate (%) on farnesylation of the Ras proteins ([1]; PFT inhibitor 0.3 μM, L-654,969 5 μM, 24 hours): 43%
- Inhibitory rate (%) on farnesylation of the Ras proteins ([1]; PFT inhibitor 1 μM, L-654,969 0.15 μM, 24 hours): 18%
- Inhibitory rate (%) on farnesylation of the Ras proteins [1, 2]: 86%
- Inhibitory rate (%) on farnesylation of the Ras proteins [1, 3]: 72%
- Inhibitory rate (%) on farnesylation of the Ras proteins [1, 4]: 95%
- inhibitory activity on farnesylation of Ras proteins in the presence of L-654,969 [1]: increased synergically and concentration-dependently
- IC50 (BMJ1 cells; [5]): 3.1 µM
- IC50 (BMJ1 cells; [6]): 0.93 µM
- 50% cell proliferation inhibitory activity in the presence of L-654,969 (BMJ1 cells): increased synergecally and concentration-dependently
